# Data reported in patent publication US9731001B2, “Three-dimensional cavities of dendritic cell immunoreceptor (DCIR), compounds binding thereto and therapeutic applications related to inhibition of human immunodeficiency virus type-1 (HIV-1)” (priority 2011, dated 2017).
# Key:
# Type in all cases: cell-based
# HIV-1 (NL4-3/Balenv) [1] = assay: HIV-1 binding assay on iMDDCs (p24); details: IM-MDDCs, 10 μM pre-incubation 10 min, NL4-3balenv 60 min
# Experimental: (§1) FIG. 7 is bar graphs showing that selected site A and site B inhibitors decrease HIV-1 binding and infection of IM-MDDCs. Upper panel: IM-MDDCs were treated with two chemical inhibitors directed against site A (A1 and A4) and two inhibitors directed against site B (B1 and B2) (or DMSO) for 10 min at 37° C. Next, cells were pulsed with NL4-3balenv for 60 min at 37° C. and rinsed extensively before measuring p24 content. Lower panel: In some experiments, similarly treated IM-MDDCs were pulsed with NL4-3balenv for 2 h at 37° C., rinsed extensively, and maintained in complete culture medium supplemented with GM-CSF and IL-4 for up to 9 days with medium replenishment every 3 days. Cell-free culture supernatants were quantified by measuring p24 content. Data shown correspond to the means±SEM of 3 independent experiments performed in triplicate. The asterisks denotes statistically significant data (*, P<0.05; **, P<0.01; ***, P<0.001).
# (§2) For assessing binding/entry, iMDDCs (3×10^5 cells in a final volume of 300 μl) were pre-treated with 10 μM of different chemical inhibitors for 10 min and exposed to NL4-3/Balenv (30 ng of p24) for 60 min at 37° C. After three washes with PBS, cells were re-suspended in PBS containing 1% BSA. The p24 content was determined by ELISA, while susceptibility of iMDDCs to HIV-1 infection was assessed by initially exposing 3×10^5 cells to NL4-3/Balenv (30 ng) at 37° C. for 2 h. After three washes with PBS, cells were maintained in complete RPMI 1640 supplemented with GM-CSF and IL-4 in 96-well plates, in a final volume of 200 μl. Every 3 days and for a 9-day period, half of the conditioned medium was collected and kept at −20° C. until assayed. Virus production was estimated as above by measuring p24 levels by ELISA.
# HIV-1 (NL4-3/Balenv) [2] = assay: HIV-1 infection assay on iMDDCs (p24 in supernatant); details: IM-MDDCs, NL4-3balenv 2 h, culture up to 9 days
# Experimental: as §1, §2
# DCIR = molecular target: T1, DCIR (Homo sapiens, UniProt Q9UMR7); assay: HIV-1 binding/entry assay on Raji-CD4-DCIR cells (cell-associated p24); details: 10 μM pre-treatment 10 min; NL4-3 60 min; p24 content
# T1 construct: expressed in transfected cells; host or cells: Raji-CD4 (human B cell line stably expressing human CD4), retroviral transduction
# T1 sequence (Q9UMR7 1-237): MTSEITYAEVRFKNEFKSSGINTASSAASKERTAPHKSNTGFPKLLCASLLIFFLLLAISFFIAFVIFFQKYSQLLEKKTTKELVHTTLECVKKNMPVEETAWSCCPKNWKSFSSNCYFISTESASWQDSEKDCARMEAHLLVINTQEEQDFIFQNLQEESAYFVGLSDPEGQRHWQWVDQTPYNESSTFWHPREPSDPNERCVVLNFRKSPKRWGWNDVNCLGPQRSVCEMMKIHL
# Experimental: FIG. 4 is a bar graph showing that inhibitors decrease HIV-1 binding on DCIR. Raji-CD4-DCIR cells were treated with 10 μM of four site A inhibitors (A1, A2, A3 and A4) and three site B inhibitors (B1, B2 and B3) (or with vehicle (DMSO) only) for 10 min at 37° C. Thereafter, cells were pulsed with NL4-3 for 60 min. After three washes with PBS to remove unadsorbed virus, the abundance of cell-associated viruses was quantified by measuring p24 content. Data shown correspond to the means±SEM of three independent experiments performed with triplicate samples. The asterisk (*) denotes statistically significant data (*, P<0.05, ** P<0.01, *** P<0.001).
# (§3) Where indicated, 1×10^6 parental Raji-CD4 cells (DCIR-negative), Raji-CD4-DCIR or Raji-DC-SIGN transfectants were pre-treated with the indicated amount of a chemical inhibitor for 10 min. Cells were then pulsed with NL4-3 (an equivalent of 100 ng of p24) for 60 min at 37° C. The virus-cell mixture was then washed three times with PBS to remove unbound virus and re-suspended in PBS containing 1% BSA. Binding/entry was then determined by the p24 content by ELISA as above. For the infection assay, Raji-CD4 and Raji-CD4-DCIR (1×10^6 cells) were exposed to NL4-3 viral stock (100 ng of p24) for 2 h at 37° C. After three washes with PBS to remove excess virus, cells were maintained in culture for up to 9 days. Cell-free culture supernatants were collected at the indicated time points and assayed for p24 content.
# DC-SIGN = molecular target: T2, DC-SIGN (Homo sapiens, UniProt Q9NNX6); assay: HIV-1 binding to Raji-DC-SIGN cells (p24); details: NL4-3 60 min
# T2 construct: expressed in transfected cells; host or cells: Raji cells stably transfected with a DC-SIGN plasmid
# T2 sequence (Q9NNX6 1-404): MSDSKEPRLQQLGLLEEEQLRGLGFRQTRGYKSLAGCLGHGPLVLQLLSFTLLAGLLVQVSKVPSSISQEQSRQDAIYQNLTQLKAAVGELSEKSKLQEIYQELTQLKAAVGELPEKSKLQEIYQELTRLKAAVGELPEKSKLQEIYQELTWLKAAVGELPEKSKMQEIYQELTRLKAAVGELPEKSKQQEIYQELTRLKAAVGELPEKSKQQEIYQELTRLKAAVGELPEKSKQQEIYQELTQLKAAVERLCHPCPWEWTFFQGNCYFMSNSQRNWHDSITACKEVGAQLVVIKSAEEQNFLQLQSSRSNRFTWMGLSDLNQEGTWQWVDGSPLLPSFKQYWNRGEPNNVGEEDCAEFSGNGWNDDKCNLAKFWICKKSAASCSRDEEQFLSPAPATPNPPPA
# Experimental: Raji-DC-SIGN cells were treated for 10 min at 37° C. with inhibitors A1 and A4 directed against the site A and B1 and B2 directed against the site B, or with DMSO. Afterwards, cells were pulsed with NL4-3 for 60 min, rinsed thrice with PBS were made to remove unadsorbed virus, and cell-associated viruses were quantified by measuring p24 content. Data shown correspond to the means±SEM of 3 independent experiments performed in triplicate.
# as §3
# HIV-1 (NL4-3) = assay: HIV-1 infection assay on Raji-CD4 and Raji-CD4-DCIR cells (p24 in supernatant); details: Raji-CD4 vs Raji-CD4-DCIR, NL4-3 2 h, culture 3 d
# Experimental: FIG. 5 is a bar graph showing that specific inhibitors against the site A (A1, A4) and site B (B1, B2) decrease infectivity of Raji-CD4-DCIR. Raji-CD4 and Raji-CD4-DCIR were treated with the inhibitors selected following experiments described in FIG. 4, or DMSO. Cells were then exposed to NL4-3 for 2 h, rinsed and maintained in culture for 3d. Cell-free culture supernatants were collected and assayed for p24 content. Data shown correspond to the means±SEM from 3 independent experiments performed with triplicate samples. The asterisk (*) denotes statistically significant data (*, P<0.05, ** P<0.01, *** P<0.001).
# as §3
smiles,measurement,setting,value
"c1ccc(-c2ccc(-c3ccccn3)nn2)nc1 [Compound A4, 3,6-di-2 pyridinylpyridazine]",HIV-1 binding to DCs,HIV-1 (NL4-3/Balenv) [1],decreased significantly
same,productive infection of DCs,HIV-1 (NL4-3/Balenv) [2],blocked productive infection
same,HIV-1 attachment to Raji-CD4-DCIR cells,DCIR,statistically significant decrease
same,HIV-1 binding to DC-SIGN,DC-SIGN,do not block HIV-1 attachment to DC-SIGN
same,HIV-1 production,HIV-1 (NL4-3),decreased HIV-1 production only in DCIR-expressing cells
